Measurements published in patent US20250332266A1, “COMPOUNDS FOR THE DEGRADATION OF EGFR KINASE” (BeiGene Switzerland GmbH, priority 2022, published 2025).

Assays:
[1] = molecular target: T1, EGFR L858R/T790M/C797S (H1975-clone #25) (Homo sapiens, UniProt P00533, C797S/L858R/T790M); assay: EGFR degradation, HTRF total-EGFR assay, H1975-clone #25 (LTC); type: cell-based; settings: H1975-clone #25 L858R/T790M/C797S, 16 h treatment
T1 construct: expressed in transfected cells; host or cells: H1975 (clone #25), lentiviral transduction, endogenous EGFR knocked out
T1 sequence (P00533 25-1210 T790M/C797S/L858R): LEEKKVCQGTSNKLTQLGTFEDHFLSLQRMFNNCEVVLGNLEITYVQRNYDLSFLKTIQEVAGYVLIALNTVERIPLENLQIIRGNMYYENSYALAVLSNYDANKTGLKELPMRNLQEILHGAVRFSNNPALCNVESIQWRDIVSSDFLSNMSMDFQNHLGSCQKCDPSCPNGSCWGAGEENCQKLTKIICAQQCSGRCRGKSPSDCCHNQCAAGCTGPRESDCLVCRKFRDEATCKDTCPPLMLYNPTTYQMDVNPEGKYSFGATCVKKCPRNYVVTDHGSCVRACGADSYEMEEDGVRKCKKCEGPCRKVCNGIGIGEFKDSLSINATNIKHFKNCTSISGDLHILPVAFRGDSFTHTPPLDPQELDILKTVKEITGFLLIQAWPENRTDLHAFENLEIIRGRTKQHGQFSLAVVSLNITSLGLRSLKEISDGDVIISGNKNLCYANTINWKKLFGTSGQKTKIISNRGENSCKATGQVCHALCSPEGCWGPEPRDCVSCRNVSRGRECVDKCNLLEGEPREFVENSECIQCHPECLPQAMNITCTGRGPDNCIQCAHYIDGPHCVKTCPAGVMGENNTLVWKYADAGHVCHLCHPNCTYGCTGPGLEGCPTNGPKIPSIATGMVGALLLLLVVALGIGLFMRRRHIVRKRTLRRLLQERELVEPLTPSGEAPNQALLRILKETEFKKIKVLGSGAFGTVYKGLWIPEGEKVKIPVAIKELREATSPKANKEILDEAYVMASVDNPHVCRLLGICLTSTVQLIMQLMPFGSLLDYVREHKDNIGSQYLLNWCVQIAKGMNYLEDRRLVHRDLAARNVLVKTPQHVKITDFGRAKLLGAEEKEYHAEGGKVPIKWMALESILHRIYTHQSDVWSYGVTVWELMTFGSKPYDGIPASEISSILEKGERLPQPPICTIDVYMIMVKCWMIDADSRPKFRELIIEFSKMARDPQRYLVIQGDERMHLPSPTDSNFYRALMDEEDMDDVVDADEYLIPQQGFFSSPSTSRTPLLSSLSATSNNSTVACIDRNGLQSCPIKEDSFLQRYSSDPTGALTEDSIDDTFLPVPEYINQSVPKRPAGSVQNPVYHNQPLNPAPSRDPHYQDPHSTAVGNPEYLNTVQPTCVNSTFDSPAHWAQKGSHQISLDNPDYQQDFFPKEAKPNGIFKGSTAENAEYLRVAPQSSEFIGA
Summary of the method: (§1)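 H1975 clones with endogenous EGFR knocked out and homozygous exogenous EGFR mutants (#28 Del19/T790M/C797S; #25 L858R/T790M/C797S) treated 16 h at 37 °C, 8 doses, 5-fold from 10 μM, 0.2% DMSO. Total EGFR measured by HTRF on lysates, normalised to DMSO controls; DC50 and Dmax from curve fit.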

[2] = molecular target: EGFR Del19/T790M/C797S (H1975-clone #28) (Homo sapiens, UniProt P00533, T790M/C797S, form not given); assay: EGFR degradation, HTRF total-EGFR assay, H1975-clone #28 (DTC); type: cell-based; settings: H1975-clone #28 Del19/T790M/C797S, 16 h treatment
Chain of EGFR Del19/T790M/C797S (H1975-clone #28) (P00533 with tags, fused parts or gaps DEL746-750/T790M/C797S, form open): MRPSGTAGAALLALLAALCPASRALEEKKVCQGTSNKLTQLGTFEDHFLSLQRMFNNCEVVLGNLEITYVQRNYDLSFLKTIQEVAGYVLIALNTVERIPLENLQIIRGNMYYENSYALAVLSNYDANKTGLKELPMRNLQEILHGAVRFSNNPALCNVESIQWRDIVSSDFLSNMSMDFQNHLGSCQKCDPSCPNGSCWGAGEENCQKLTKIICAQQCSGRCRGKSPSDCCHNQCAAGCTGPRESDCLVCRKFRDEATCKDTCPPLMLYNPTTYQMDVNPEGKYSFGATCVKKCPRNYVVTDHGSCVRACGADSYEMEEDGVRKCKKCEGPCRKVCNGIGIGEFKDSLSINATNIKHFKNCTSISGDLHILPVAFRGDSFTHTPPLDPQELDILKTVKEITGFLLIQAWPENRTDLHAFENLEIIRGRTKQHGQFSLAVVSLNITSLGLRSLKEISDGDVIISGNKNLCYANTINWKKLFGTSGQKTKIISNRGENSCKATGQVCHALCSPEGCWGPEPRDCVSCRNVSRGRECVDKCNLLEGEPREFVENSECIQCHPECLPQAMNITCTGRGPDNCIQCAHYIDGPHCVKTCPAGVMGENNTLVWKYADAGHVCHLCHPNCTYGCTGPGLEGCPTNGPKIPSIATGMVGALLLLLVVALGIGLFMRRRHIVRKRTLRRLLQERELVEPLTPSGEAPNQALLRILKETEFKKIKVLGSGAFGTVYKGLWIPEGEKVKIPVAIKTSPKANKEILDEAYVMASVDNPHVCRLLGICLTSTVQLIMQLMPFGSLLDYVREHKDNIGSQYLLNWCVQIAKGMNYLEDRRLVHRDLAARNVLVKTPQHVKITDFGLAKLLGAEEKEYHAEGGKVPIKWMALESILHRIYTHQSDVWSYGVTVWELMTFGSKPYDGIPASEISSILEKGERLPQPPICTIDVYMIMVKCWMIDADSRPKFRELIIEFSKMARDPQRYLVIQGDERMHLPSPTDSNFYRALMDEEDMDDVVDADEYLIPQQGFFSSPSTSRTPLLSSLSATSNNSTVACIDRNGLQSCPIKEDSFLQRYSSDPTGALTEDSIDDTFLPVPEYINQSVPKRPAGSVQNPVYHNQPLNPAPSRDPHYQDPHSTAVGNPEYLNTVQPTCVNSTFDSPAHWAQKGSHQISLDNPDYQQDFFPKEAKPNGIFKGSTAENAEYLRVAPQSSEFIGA
Summary of the method: as §1

Structure (SMILES)	Degradation H1975 # 25-LTC [1]	Degradation H1975 # 28 DTC [2]
Cc1cc2cc(n1)-c1cnn(C)c1OC[C@H]1C[C@@H](CN3/C(=N/C2=O)Nc2ccc(N4CCC(N5CCN(c6ccc(C7CCC(=O)NC7=O)nc6C)CC5)CC4)cc23)C1 (some centres unmarked) [Example 28, 3-(5-(4-(1-((7^1s,7^3s,E)-1^1,2^6-dimethyl-3-oxo-5^2,5^3-dihydro-1^1H,5^1H-9-oxa-4-aza-5(2,1)-benzo[d]imidazola-2(2,4)-pyridina-1(4,5)-pyrazola-7(1,3)-cyclobutanacyclononaphane-5^6-yl)piperidin-4-yl)piperazin-1-yl)-6-methylpyridin-2-yl)piperidine-2,6-dione]	92.1	79.8
Cc1cc2cc(n1)-c1cnn(C)c1OC[C@H]1C[C@@H](CN3/C(=N/C2=O)Nc2ccc(N4CCN(C5CCN(c6ccc(C7CCC(=O)NC7=O)nc6C)CC5)C(=O)C4)cc23)C1 (some centres unmarked) [Example 26, 3-(5-(4-(4-((7^1s,7^3s,E)-1^1,2^6-dimethyl-3-oxo-5^2,5^3-dihydro-1^1H,5^1H-9-oxa-4-aza-5(2,1)-benzo[d]imidazola-2(2,4)-pyridina-1(4,5)-pyrazola-7(1,3)-cyclobutanacyclononaphane-5^6-yl)-2-oxopiperazin-1-yl)piperidin-1-yl)-6-methylpyridin-2-yl)piperidine-2,6-dione]	92.1	90.8
Cc1cc2cc(n1)-c1cnn(C)c1OC[C@H]1C[C@@H](CN3/C(=N/C2=O)Nc2ccc(N4CCN([C@@H]5CCN(c6ccc(C7CCC(=O)NC7=O)nc6C)CC5(F)F)CC4)cc23)C1 (stereo partly drawn) [Example 123, 3-(5-((R)-4-(4-((7^1s,7^3S,E)-1^1,2^6-dimethyl-3-oxo-5^2,5^3-dihydro-1^1H,5^1H-9-oxa-4-aza-5(2,1)-benzo[d]imidazola-2(2,4)-pyridina-1(4,5)-pyrazola-7(1,3)-cyclobutanacyclononaphane-5^6-yl)piperazin-1-yl)-3,3-difluoropiperidin-1-yl)-6-methylpyridin-2-yl)piperidine-2,6-dione]	92.1	85.6
Cc1cc2cc(n1)-c1cnn(C)c1OC[C@H]1C[C@@H](CN3/C(=N/C2=O)Nc2ccc(N4CCN(C5CCN(c6ccc(C7CCC(=O)NC7=O)nc6)CC5)C[C@H]4C)cc23)C1 (stereo partly drawn) [Example 7, 3-(5-(4-((R)-4-((7^1s,7^3S,E)-1^1,2^6-dimethyl-3-oxo-5^2,5^3-dihydro-1^1H,5^1H-9-oxa-4-aza-5(2,1)-benzo[d]imidazola-2(2,4)-pyridina-1(4,5)-pyrazola-7(1,3)-cyclobutanacyclononaphane-5^6-yl)-3-methylpiperazin-1-yl)piperidin-1-yl)pyridin-2-yl)piperidine-2,6-dione]	78.6	80.6
Cc1cc2cc(n1)-c1cnn(C)c1OC[C@H]1C[C@@H](CN3/C(=N/C2=O)Nc2ccc(N4CCN(C5CCN(c6cc(F)c([C@H]7CCC(=O)NC7=O)c(F)c6)CC5)CC4=O)cc23)C1 [Example 10, (R)-3-(4-(4-(4-((7^1s,7^3s,E)-1^1,2^6-dimethyl-3-oxo-5^2,5^3-dihydro-1^1H,5^1H-9-oxa-4-aza-5(2,1)-benzo[d]imidazola-2(2,4)-pyridina-1(4,5)-pyrazola-7(1,3)-cyclobutanacyclononaphane-5^6-yl)-3-oxopiperazin-1-yl)piperidin-1-yl)-2,6-difluorophenyl)piperidine-2,6-dione]	89.8	90.6
Cc1cc2cc(n1)-c1cnn(C)c1OC[C@H]1C[C@@H](CN3/C(=N/C2=O)Nc2ccc(N4CCN([C@@H]5CCN(c6cnc(C7CCC(=O)NC7=O)cc6C)C[C@H]5F)CC4)cc23)C1 (stereo partly drawn) [Example 138, 3-(5-((3R,4R)-4-(4-((7^1s,7^3S,E)-1^1,2^6-dimethyl-3-oxo-5^2,5^3-dihydro-1^1H,5^1H-9-oxa-4-aza-5(2,1)-benzo[d]imidazola-2(2,4)-pyridina-1(4,5)-pyrazola-7(1,3)-cyclobutanacyclononaphane-5^6-yl)piperazin-1-yl)-3-fluoropiperidin-1-yl)-4-methylpyridin-2-yl)piperidine-2,6-dione]	88.4	90.9
Cc1cc2cc(n1)-c1cnn(C)c1OC[C@H]1C[C@@H](CN3/C(=N/C2=O)Nc2ccc(N4C[C@H]5C[C@@H]4CN5C4CCN(c5ccc(C6CCC(=O)NC6=O)nc5C)CC4)cc23)C1 (stereo partly drawn) [Example 43, 3-(5-(4-((1R,4R)-5-((7^1s,7^3S,E)-1^1,2^6-dimethyl-3-oxo-5^2,5^3-dihydro-1^1H,5^1H-9-oxa-4-aza-5(2,1)-benzo[d]imidazola-2(2,4)-pyridina-1(4,5)-pyrazola-7(1,3)-cyclobutanacyclononaphane-5^6-yl)-2,5-diazabicyclo[2.2.1]heptan-2-yl)piperidin-1-yl)-6-methylpyridin-2-yl)piperidine-2,6-dione]	87.1	75.5
Cc1cc2cc(n1)-c1cnn(C)c1OC[C@H]1C[C@@H](CN3/C(=N/C2=O)Nc2ccc(N4CCN(CCc5cc(F)c([C@H]6CCC(=O)NC6=O)c(F)c5)CC4=O)cc23)C1 [Example 9, (R)-3-(4-(2-(4-((7^1s,7^3s,E)-1^1,2^6-dimethyl-3-oxo-5^2,5^3-dihydro-1^1H,5^1H-9-oxa-4-aza-5(2,1)-benzo[d]imidazola-2(2,4)-pyridina-1(4,5)-pyrazola-7(1,3)-cyclobutanacyclononaphane-5^6-yl)-3-oxopiperazin-1-yl)ethyl)-2,6-difluorophenyl)piperidine-2,6-dione]	88.5	90.9
Cc1cc2cc(n1)-c1cnn(C)c1OC[C@H]1C[C@@H](CN3/C(=N/C2=O)Nc2ccc(N4CCC(N5C[C@@H]6C[C@H]5CN6c5ccc(C6CCC(=O)NC6=O)nc5C)CC4)cc23)C1 (stereo partly drawn) [Example 47, 3-(5-((1S,4S)-5-(1-((7^1s,7^3R,E)-1^1,2^6-dimethyl-3-oxo-5^2,5^3-dihydro-1′H,5^1H-9-oxa-4-aza-5(2,1)-benzo[d]imidazola-2(2,4)-pyridina-1(4,5)-pyrazola-7(1,3)-cyclobutanacyclononaphane-5^6-yl)piperidin-4-yl)-2,5-diazabicyclo[2.2.1]heptan-2-yl)-6-methylpyridin-2-yl)piperidine-2,6-dione]	93.3	78.5
Cc1cc2cc(n1)-c1cnn(C)c1OC[C@H]1C[C@@H](CN3/C(=N/C2=O)Nc2ccc(N4CCN(C5CCN(c6ccc(C7CCC(=O)NC7=O)nc6C)CC5)CC4)cc23)C1 (some centres unmarked) [Example 21, 3-(5-(4-(4-((7^1s,7^3s,E)-1^1,2^6-dimethyl-3-oxo-5^2,5^3-dihydro-1H,5^1H-9-oxa-4-aza-5(2,1)-benzo[d]imidazola-2(2,4)-pyridina-1(4,5)-pyrazola-7(1,3)-cyclobutanacyclononaphane-5^6-yl)piperazin-1-yl)piperidin-1-yl)-6-methylpyridin-2-yl)piperidine-2,6-dione]	94.0	91.5
